# Assay results reported in US20210186972A1, “FORMULATIONS AND METHODS FOR THE PREVENTION AND TREATMENT OF TUMOR METASTASIS AND TUMORIGENESIS” (THE UNITED STATES OF AMERICA, AS REPRESENTED BY THE …, priority 2018, published 2021).
# Read-outs that look alike come from different tables or passages of the source.
# Columns and labels:
# PC3M-GFP-PTB cells = assay: PNC prevalence / PNC disassembly in PC3M-GFP-PTB cells; type: cell-based, human
# Excerpt: FIG. 1 is a graph showing the concentration-response curve against PNC prevalence in PC3M (a metastatic prostate cancer cell line)-GFP (green fluorescent protein)-PTB (polypyrimidine tract-binding protein) cells (squares, PC3M, has a PNC prevalence of 75-85% in the absence of treatment) and cytotoxicity as measured by cellular ATP (CELLTITER GLO™) (circles). Representative PTB-GFP images for cells at the indicated concentrations (arrowheads indicate PNCs) (scale bar=5 μm) are shown in the three panels above the graph. The relative signal (%) is along the y-axis and Metarrestin [log M] is along the x-axis.
# A metastatic prostate cancer cell line, PC3M, was developed in order to screen small molecules that effectively disassemble PNCs (see Pettaway, et al., “Selection of highly metastatic variants of different human prostatic carcinomas using orthotopic implantation in nude mice,” Clin. Cancer Res., (2): 1627-36 (1996), incorporated herein in its entirety). PC3M has a […] stably express GFP-PTB (polypyrimidine track binding protein) (FIG. 1, top panels), an essential component of PNCs (see Huang, et al., “The perinucleolar compartment and transcription,” Journal of Cell Biology, (143): 35-47 (1998), incorporated herein in its entirety). Compounds able to reduce PNC prevalence by 50% were filtered in secondary assays to eliminate those that induced apoptosis, DNA damage, generic cytotoxicity, or cell-cycle blockage (see Norton, et al., “Automated high-content screening for compounds that disassemble the perinucleolar compartment,” J Biomol Screen, (14): 1045-53 (2009) and Frankowski, et al., “Discovery and Development of Small Molecules That Reduce PNC Prevalence, in Probe Reports from the NIH Molecular Libraries Program, Bethesda (Md.).(2010), incorporated herein in their entirety). The remaining hits were evaluated for invasion inhibition through MATRIGEL gelatinous protein mixture and anchorage-independent growth inhibition using soft agar assays.
# NSG PANC1 mice = assay: Survival in NSG PANC1 pancreatic cancer metastasis model, drug-infused chow; type: in vivo
# Excerpt: FIG. 13 is a graph showing the survival rate of mice following metarrestin or vehicle treatment. This graph illustrates that metarrestin treatment extends survival in the NSG PANC1 pancreatic cancer metastasis model. […] The survival rate in the y-axis and the number of days after treatment is on the x-axis. Metarrestin treatment is the solid grey line at 100% survival and the descending black line is the vehicle (*** p<0.001).
# FIG. 14 is a graph showing the survival rate of mice following metarrestin or vehicle treatment. This graph illustrates that metarrestin treatment extends survival in the NSG PANC1 pancreatic cancer metastasis model. Metarrestin treatment was provided through drug-infused chow (70 ppm designed to administer 10 mg/kg daily) after mice developed macrometastasis, including visible liver surface deposits. Metarrestin treatment extended the survival time of the mice compared to vehicle treated (NIH 31 Haslan diet). The survival rate in the y-axis and the number of days after treatment is on the x-axis. Metarrestin treatment is the solid grey line and the black line is the vehicle ([…]).
# To evaluate whether metarrestin treatment can provide a survival advantage by preventing metastatic progression, the above experiment was repeated, but mice were followed until death or when animals reached study endpoint. NSG mice were injected with 60,000 3D PANC1 cells (details of assay below), and daily treatment with metarrestin-infused chow (10 mg/kg; 70 ppm, micronized particles added to NIH 31 Haslan rodent diet) began 6 weeks after tumor cell implantation, when metastasis was limited to micrometastasis by histopathological examination (FIG. 63). Animals in the control group receiving regular chow started to die 25 days after the start of treatment, whereas the metarrestin treatment group had no mortality more than 90 days after the start of treatment (FIG. 13). […]
# Pancreatic cancer model: 60,000 luciferase-tagged PANC1 spheres were injected into the pancreas of Nod/IL2gamma (null) mice (obtained from NCI Mouse Repository, Frederick, Md.; on ACUC-approved animal protocol SB-211-2). […] Organs were then individually dissected, subjected to quantitative xenogene imaging, and fixed with 4% non-buffered formaldehyde. Impact of metastatic burden was calculated and graphed as liver and lung/primary tumor ratios based on a five-minute photon count for the liver normalized to liver weight (g), which was then compared to the average photon count per weight (g) of the primary pancreatic tumor of the same animal. […] Liver metastasis/mm^2 was calculated as the sum of the […] of the individual metastases. Tumor volume (mm^3) was calculated as (L×W2), where L=length (mm) and W=width (mm). Animal survival was measured from the first day of treatment until death. […]
# [1] = infused chow 10 mg/kg (70 ppm) after macrometastasis visible
compound,measurement,setting,value
N=c1c2c(-c3ccccc3)c(-c3ccccc3)n(Cc3ccccc3)c2ncn1[C@H]1CC[C@H](O)CC1 [metarrestin],PNC disassembly and nucleolar distortion,PC3M-GFP-PTB cells; 1 μM,~100%
same,IC90,"PC3M-GFP-PTB cells; Homo sapiens, FIG. 1",750 nM
same,IC50,"PC3M-GFP-PTB cells; Homo sapiens, P3CM cells, read-out: PNC disassembling IC50",390 nM
same,IC50,"PC3M-GFP-PTB cells; Homo sapiens, PC3M-GFP-PTB cells, read-out: IC50 for disruption of PNCs",390 nM
same,IC100,"PC3M-GFP-PTB cells; PC3M cells, 24 hours",1 µM
same,Extension of median overall survival over control group,NSG PANC1 mice; [1],more than two-fold
same,"Organ replacement with tumors at necropsy (liver, lungs)",NSG PANC1 mice; [1],preserved organs
same,Primary tumor growth in the pancreas,NSG PANC1 mice; [1],no significant difference
same,Time after start of treatment without mortality,NSG PANC1 mice; infused chow 10 mg/kg (70 ppm) from 6 weeks after implantation (micrometastasis),more than 90 days
